This is an account of results in US8198269B2, “Fused aminodihydrothiazine derivative” (Eisai R&D Management Co., Ltd., priority 2008, dated 2012).

For this experiment, the system named is Aβ42 production. Description: Quantification of Aβ peptide in culture of neurons from rat fetus brain (Aβ ELISA). Format: cell-based. The conditions noted are these: Neuron, 72 h; rat primary neuronal culture (embryonic day 18 Wistar rat cerebral cortex); cultured three days after addition of compound; Aβ42 concentration in the medium by ELISA; read-out: Aβ42 production reducing effect IC50. The method, then:
Quantification of Aβ Peptide in Culture of Neurons from Rat Fetus Brain
(1) Rat Primary Neuronal Culture
Primary neuronal cultures were prepared from the cerebral cortex of embryonic day 18 Wistar rats (Charles River Japan, Yokohama, Japan). Specifically, the embryos were aseptically removed from pregnant rats under ether anesthesia. The brain was isolated from the embryo and immersed in an ice-cold L-15 medium (such as Invitrogen Corp. Cat #11415-064, Carlsbad, Calif., USA, or SIGMA L1518). The cerebral cortex was collected from the isolated brain under a stereoscopic microscope. The cerebral cortex fragments collected were enzymatically treated in an enzyme solution containing 0.25% trypsin (Invitrogen Corp. Cat #15050-065, Carlsbad, Calif., USA) and 0.01% DNase (Sigma D5025, St. Louis, Mo., USA) at 37° C. for 30 minutes to disperse the cells. Here, the enzymatic reaction was stopped by adding inactivated horse serum to the solution. The enzymatically treated solution was centrifuged at 1,500 rpm for five minutes to remove the supernatant. 5 to 10 ml of a medium was added to the resulting cell mass. […]
On the technique in general: In an ELISA, binding on a coated surface is turned into a signal by an enzyme label.

Each structure is given as a SMILES string.

As a reminder, the IC50 is the midpoint of a concentration-inhibition curve. Consider `NC1=N[C@@]2(c3cc(NC(=O)c4cnc(OCF)cn4)ccc3F)COC[C@@H](F)[C@H]2CS1` [Example 21, N-[3-((4aS,5S,8aS)-2-amino-5-fluoro-4,4a,5,6,8,8a-hexahydro-7-oxa-3-thia-1-azanaphthalen-8a-yl)-4-fluorophenyl]-5-fluoromethoxypyrazine-2-carboxamide], for which the concentration for half-maximal inhibition (IC50) worked out at 10 nM.
